Assay results published in PubChem BioAssay AID248 (DTP/NCI, 2004).
Several values for one entry are separate records, joined by “and”; a condition that tells them apart may be missing. Identical values can stand only once. Toxic doses and inconclusive results are not listed. Rule as the data show it: active = T/C of 150% or more; inactive = T/C below 125%.

Tested on: L1210 leukemia ip in BDF1 mice, survival T/C
Test: NCI In Vivo Anticancer Drug Screen. Data for tumor model L1210 Leukemia (intraperitoneal) in B6D2F1 (BDF1) mice
Conditions: endpoint: mean survival time, higher = longer survival
Summary of the method: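 In this screen, tumor-bearing mice given compound are compared to those given vehicle, and their survival values are reported as a treated-to-control quotient.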

[1] = dose: 100.0 mg/kg/injection, schedule: Q01DX001 (ip), vehicle: saline
[2] = dose: 100.0 mg/kg/injection, schedule: Q01DX009 (ip), vehicle: saline
[3] = dose: 200.0 mg/kg/injection, schedule: Q01DX001 (ip), vehicle: saline
[4] = dose: 200.0 mg/kg/injection, schedule: Q01DX009 (ip), vehicle: saline
[5] = dose: 400.0 mg/kg/injection, schedule: Q01DX001 (ip), vehicle: saline
[6] = dose: 400.0 mg/kg/injection, schedule: Q01DX009 (ip), vehicle: saline
[7] = dose: 100.0 mg/kg/injection, schedule: Q01DX009 (ip), vehicle: acetone
[8] = dose: 100.0 mg/kg/injection, schedule: Q01DX009 (ip), vehicle: Klucel (hydroxypropylcellulose) (HPC)
[9] = dose: 200.0 mg/kg/injection, schedule: Q01DX009 (ip), vehicle: Klucel (hydroxypropylcellulose) (HPC)
[10] = dose: 400.0 mg/kg/injection, schedule: Q01DX009 (ip), vehicle: Klucel (hydroxypropylcellulose) (HPC)
[11] = dose: 100.0 mg/kg/injection, schedule: Q04DX002 (ip), vehicle: Klucel (hydroxypropylcellulose) (HPC)
[12] = dose: 200.0 mg/kg/injection, schedule: Q04DX002 (ip), vehicle: Klucel (hydroxypropylcellulose) (HPC)
[13] = dose: 400.0 mg/kg/injection, schedule: Q04DX002 (ip), vehicle: Klucel (hydroxypropylcellulose) (HPC)

Measured: T/C

O=C(OCC1CCN2CCCC12)c1ccccc1 (stereo unspecified)
inactive: dose: 12.5 mg/kg/injection, schedule: Q04DX003 (ip), vehicle: saline 104 % of control | dose: 25.0 mg/kg/injection, schedule: Q04DX003 (ip), vehicle: saline 110 % of control | dose: 50.0 mg/kg/injection, schedule: Q04DX003 (ip), vehicle: saline 102 % of control

CCOC(O)(C=O)C1CCCN1 (stereo unspecified)
inactive: [1] 100 % of control | [2] 104 % of control | [3] 97 % of control | [4] 101 % of control | [5] 97 % of control | [6] 95 % of control

CCCC(NCc1ccccc1)C(=O)O (stereo unspecified)
inactive: [7] 90 % of control | dose: 200.0 mg/kg/injection, schedule: Q01DX009 (ip), vehicle: acetone 90 % of control | dose: 400.0 mg/kg/injection, schedule: Q01DX009 (ip), vehicle: acetone 90 % of control

CCCCCCCCCCCCC(O)C(O)CCCCCCCC(=O)O (stereo unspecified)
inactive: [8] 94 % of control | [9] 93 % of control | [10] 93 % of control

CC(C)(C)OC(=O)NC(Cc1ccccc1)C(=O)NN (stereo unspecified)
inactive: [11] 108 % of control | [12] 97 % of control | [13] 108 % of control

COC(=O)c1cc(N)ccc1Br
inactive: dose: 100.0 mg/kg/injection, schedule: Q04DX003 (sc), vehicle: olive oil, sesame oil, peanut oil 93 % of control | dose: 200.0 mg/kg/injection, schedule: Q04DX003 (sc), vehicle: olive oil, sesame oil, peanut oil 111 % of control | dose: 400.0 mg/kg/injection, schedule: Q04DX003 (sc), vehicle: olive oil, sesame oil, peanut oil 95 % of control

O=c1[nH]nc(-c2ccc(C(F)(F)F)cc2)s1
inactive: dose: 75.0 mg/kg/injection, schedule: Q01DX001 (ip), vehicle: saline 95 % of control | dose: 75.0 mg/kg/injection, schedule: Q04DX003 (ip), vehicle: saline 93 % of control | dose: 150.0 mg/kg/injection, schedule: Q01DX001 (ip), vehicle: saline 104 % of control | dose: 150.0 mg/kg/injection, schedule: Q04DX003 (ip), vehicle: saline 98 % of control | dose: 300.0 mg/kg/injection, schedule: Q01DX001 (ip), vehicle: saline 97 % of control | dose: 300.0 mg/kg/injection, schedule: Q04DX003 (ip), vehicle: saline 98 % of control

O=C(Nc1ccc2c(c1)Cc1cc([N+](=O)[O-])ccc1-2)C(F)(F)F
inactive: dose: 100.0 mg/kg/injection, schedule: Q04DX003 (ip), vehicle: saline with Tween-80 94 % of control | dose: 200.0 mg/kg/injection, schedule: Q04DX003 (ip), vehicle: saline with Tween-80 94 % of control | dose: 400.0 mg/kg/injection, schedule: Q04DX003 (ip), vehicle: saline with Tween-80 94 % of control

OCC1OC2OC(c3ccccc3)(c3ccc(OCc4ccccc4)nc3OCc3ccccc3)OC2C1O (stereo unspecified)
inactive: dose: 100.0 mg/kg/injection, schedule: Q01DX001 (ip), vehicle: other 88 % of control | dose: 200.0 mg/kg/injection, schedule: Q01DX001 (ip), vehicle: other 90 % of control | dose: 400.0 mg/kg/injection, schedule: Q01DX001 (ip), vehicle: other 92 % of control

CC(C)(C)Sc1cc(C#N)ccn1
inactive: dose: 50.0 mg/kg/injection, schedule: Q04DX003 (ip), vehicle: other 100 % of control and 92 % of control | dose: 100.0 mg/kg/injection, schedule: Q04DX002 (ip), vehicle: other 103 % of control and 109 % of control | dose: 200.0 mg/kg/injection, schedule: Q04DX002 (ip), vehicle: other 98 % of control and 102 % of control | dose: 400.0 mg/kg/injection, schedule: Q04DX002 (ip), vehicle: other 103 % of control and 106 % of control

CCCCCCCCOc1ccc(C)cc1
inactive: [8] 107 % of control | [9] 94 % of control | [10] 97 % of control

NCCc1cc(O)c(O)cc1O
inactive: dose: 25.0 mg/kg/injection, schedule: Q01DX009 (ip), vehicle: saline 102 % of control and 107 % of control | dose: 50.0 mg/kg/injection, schedule: Q01DX009 (ip), vehicle: saline 93 % of control and 103 % of control | [2] 93 % of control and 91 % of control | [4] 88 % of control | [6] 86 % of control

COC1=NS(=O)(=O)C2(O1)c1ccccc1-c1ccccc12
inactive: [11] 96 % of control | [12] 96 % of control | [13] 116 % of control

c1ccc(CCC[P+](c2ccccc2)(c2ccccc2)c2ccccc2)cc1
inactive: dose: 2.5 mg/kg/injection, schedule: Q01DX009 (ip), vehicle: saline 113 % of control | dose: 5.0 mg/kg/injection, schedule: Q01DX001 (ip), vehicle: saline 101 % of control | dose: 5.0 mg/kg/injection, schedule: Q01DX009 (ip), vehicle: saline 118 % of control | dose: 10.0 mg/kg/injection, schedule: Q01DX001 (ip), vehicle: saline 95 % of control | dose: 10.0 mg/kg/injection, schedule: Q01DX009 (ip), vehicle: saline 102 % of control | dose: 20.0 mg/kg/injection, schedule: Q01DX001 (ip), vehicle: saline 117 % of control | dose: 40.0 mg/kg/injection, schedule: Q01DX001 (ip), vehicle: saline 117 % of control

BrCCN(CCBr)c1ccc2c3c(cccc13)-c1ccccc1-2
inactive: dose: 0.3 mg/kg/injection, schedule: Q01DX Z (ip), vehicle: other 117 % of control | dose: 0.7 mg/kg/injection, schedule: Q01DX Z (ip), vehicle: other 120 % of control | dose: 1.5 mg/kg/injection, schedule: Q01DX Z (ip), vehicle: other 123 % of control | dose: 6.25 mg/kg/injection, schedule: Q01DX009 (ip), vehicle: acetone 112 % of control | dose: 7.5 mg/kg/injection, schedule: Q01DX Z (ip), vehicle: other 101 % of control | dose: 11.0 mg/kg/injection, schedule: Q01DX Z (ip), vehicle: other 112 % of control | dose: 50.0 mg/kg/injection, schedule: Q01DX001 (ip), vehicle: carboxymethylcellulose (CMC) 124 % of control | dose: 100.0 mg/kg/injection, schedule: Q01DX001 (ip), vehicle: carboxymethylcellulose (CMC) 114 % of control | dose: 100.0 mg/kg/injection, schedule: Q04DX003 (ip), vehicle: saline 120 % of control | dose: 200.0 mg/kg/injection, schedule: Q01DX001 (ip), vehicle: carboxymethylcellulose (CMC) 124 % of control | dose: 400.0 mg/kg/injection, schedule: Q01DX001 (ip), vehicle: carboxymethylcellulose (CMC) 120 % of control

ClC(Cl)(Cl)CC(Br)C(Br)CBr (stereo unspecified)
inactive: dose: 100.0 mg/kg/injection, schedule: Q01DX001 (ip), vehicle: acetone 96 % of control | [7] 95 % of control | dose: 100.0 mg/kg/injection, schedule: Q04DX003 (ip), vehicle: acetone 97 % of control | dose: 200.0 mg/kg/injection, schedule: Q01DX001 (ip), vehicle: acetone 98 % of control | dose: 200.0 mg/kg/injection, schedule: Q04DX003 (ip), vehicle: acetone 92 % of control | dose: 400.0 mg/kg/injection, schedule: Q01DX001 (ip), vehicle: acetone 98 % of control | dose: 400.0 mg/kg/injection, schedule: Q04DX003 (ip), vehicle: acetone 91 % of control

CN(C)C(=S)N(C(=S)N(C)C)c1ccc(Cl)cc1
inactive: [1] 101 % of control | [3] 92 % of control | [5] 97 % of control
